From ChEMBL document CHEMBL4373736, “Synthesis and biological evaluation of panaxatriol derivatives against myocardial ischemia/reperfusion injury in the rat” (Eur J Med Chem, 2020) come the findings set out here.

The subject of data set [1] is Cardiac muscle cell. In words: Cytoprotective activity against OGD/reperfusion induced injury in Sprague-Dawley rat cardiomyocytes assessed as effect on cell viability at 1 uM pretreated for 24 hrs followed by OGD for 2 hrs and subsequent reperfusion for 24 hrs (reference value: 43.9 to 45.4 +/- 1.1 %). It is filed as functional.
The test system of data set [2] is Cardiac muscle cell. In words: Cytotoxicity against Sprague-Dawley rat cardiomyocytes assessed as inhibition of cell growth at 10 uM treated for 50 hrs by MTT assay. It counts as cell-based.
The test system of data set [3] is Cardiac muscle cell. In words: Cytoprotective activity against OGD/reperfusion induced injury in Sprague-Dawley rat cardiomyocytes assessed as effect on cell viability at 10 uM pretreated for 24 hrs followed by OGD for 2 hrs and subsequent reperfusion for 24 hrs (reference value: 43.9 to 45.4 +/- 1.1 %). It counts as functional.
Data set [4] concerns Cardiac muscle cell. In words: Cytoprotective activity against OGD/reperfusion induced injury in Sprague-Dawley rat cardiomyocytes assessed as effect on cell viability at 0.1 uM pretreated for 24 hrs followed by OGD for 2 hrs and subsequent reperfusion for 24 hrs (reference value: 43.9 to 45.4 +/- 1.1 %). It is filed as functional.
Data set [5] concerns Rattus norvegicus. Description: Cardioprotective activity in Sprague-Dawley rat model of LAD coronary artery ligation-induced ischemia/reperfusion assessed as infarct size of left ventricle size at 40 mg/kg, ig pretreated twice a day for 3 days and measured 24 hrs post-reperfusion by TTC staining based assay (reference value: 49.1 %). It counts as functional.
Data set [6] concerns Rattus norvegicus. Description: Cardioprotective activity in ig dosed Sprague-Dawley rat model of LAD coronary artery ligation-induced ischemia/reperfusion assessed as change in myocardial structure at 10 to 40 mg/kg, ig pretreated twice a day for 3 days and measured 24 hrs post-reperfusion by hematoxylin and eosin staining based assay. It is filed as functional, organism-based.

For data set [7], the system named is Rattus norvegicus. Description: Cardioprotective activity in ig dosed Sprague-Dawley rat model of LAD coronary artery ligation-induced ischemia/reperfusion assessed as as infarct size of left ventricle size pretreated twice a day for 3 days and measured 24 hrs post-reperfusion by TTC staining based assay. It counts as functional, organism-based.
The test system of data set [8] is Rattus norvegicus. Description: Cardioprotective activity in ig dosed Sprague-Dawley rat model of LAD coronary artery ligation-induced ischemia/reperfusion assessed as myocardial cell swelling at 10 to 40 mg/kg, ig pretreated twice a day for 3 days and measured 24 hrs post-reperfusion by hematoxylin and eosin staining based assay. It is filed as functional, organism-based.

In data set [9] the test system is Rattus norvegicus. Description: Cardioprotective activity in ig dosed Sprague-Dawley rat model of LAD coronary artery ligation-induced ischemia/reperfusion assessed as reduction in serum cardiac troponin1 level pretreated twice a day for 3 days and measured 24 hrs post-reperfusion. It counts as functional, organism-based.
Data set [10] concerns Rattus norvegicus. Description: Cardioprotective activity in Sprague-Dawley rat model of LAD coronary artery ligation-induced ischemia/reperfusion assessed as infarct size of left ventricle size at 20 mg/kg, ig pretreated twice a day for 3 days and measured 24 hrs post-reperfusion by TTC staining based assay (reference value: 49.1 %). It is filed as functional.

Active and inactive are the calls of the source. The rule behind the calls is not given here.

Take `CC1(C)CCC[C@](C)([C@H]2CC[C@]3(C)[C@@H]2[C@H](O)C[C@@H]2[C@@]4(C)CC[C@H](O)C(C)(C)[C@@H]4[C@H](O)C[C@]23C)O1`: the Activity in the data set with Cardiac muscle cell [1] was 52.3%; in the data set on Cardiac muscle cell [2] it was “Non-Toxic”; with Cardiac muscle cell [3], 61.9%; in the data set on Cardiac muscle cell [4], 47.8%; with Rattus norvegicus [5] it was 30.6%.

With `Cc1ccc2[nH]c3c(c2c1)C[C@]1(C)[C@H]2C[C@@H](O)[C@@H]4[C@@H]([C@@]5(C)CCCC(C)(C)O5)CC[C@@]4(C)[C@]2(C)CC(=O)[C@H]1C3(C)C`, the Activity in the data set on Cardiac muscle cell [1] is 66.4%; with Cardiac muscle cell [2], “Non-Toxic”; with Cardiac muscle cell [3], 73.8%; in the data set on Cardiac muscle cell [4], 58.9%.

In the case of `CC1(C)CCC[C@](C)([C@H]2CC[C@]3(C)[C@@H]2[C@H](O)C[C@@H]2[C@@]4(C)Cc5c([nH]c6ccc(F)cc56)C(C)(C)[C@@H]4C(=O)C[C@]23C)O1`, the Activity was 58.8% in the data set on Cardiac muscle cell [1], “Non-Toxic” with Cardiac muscle cell [2], 63.6% in the data set on Cardiac muscle cell [3] and 54.6% with Cardiac muscle cell [4].

On to `CC1(C)CCC[C@](C)([C@H]2CC[C@]3(C)[C@@H]2[C@H](O)C[C@@H]2[C@@]4(C)Cc5c([nH]c6c(F)cccc56)C(C)(C)[C@@H]4C(=O)C[C@]23C)O1`, for which the Activity with Cardiac muscle cell [1] is reported as 58%; in the data set on Cardiac muscle cell [2], “Non-Toxic”; in the data set with Cardiac muscle cell [3] it was 62.6%; with Cardiac muscle cell [4], 53.5%.

For the compound `CCOC(=O)c1nn(-c2ccccc2)c2c1C[C@]1(C)[C@H]3C[C@@H](O)[C@@H]4[C@@H]([C@@]5(C)CCCC(C)(C)O5)CC[C@@]4(C)[C@]3(C)C[C@@H](O)[C@H]1C2(C)C`, the Activity in the data set on Cardiac muscle cell [1] was 56.8%; in the data set on Cardiac muscle cell [2], “Non-Toxic”; in the data set with Cardiac muscle cell [3] it was 63.6%; with Cardiac muscle cell [4] it was 51.4%.

Regarding `CC1(C)CCC[C@](C)([C@H]2CC[C@]3(C)[C@@H]2[C@H](O)C[C@@H]2[C@@]4(C)Cc5cnn(-c6ccc(F)cc6)c5C(C)(C)[C@@H]4[C@H](O)C[C@]23C)O1`, the Activity is 65.3% with Cardiac muscle cell [1], “Non-Toxic” with Cardiac muscle cell [2], 73.2% with Cardiac muscle cell [3] and 56.5% in the data set with Cardiac muscle cell [4].

In the case of `CC1(C)CCC[C@](C)([C@H]2CC[C@]3(C)[C@@H]2[C@H](O)C[C@@H]2[C@@]4(C)Cc5sc(-c6cccnc6)nc5C(C)(C)[C@@H]4C(=O)C[C@]23C)O1`, the Activity in the data set with Cardiac muscle cell [1] is 51.3%; with Cardiac muscle cell [2], “Non-Toxic”; in the data set on Cardiac muscle cell [3], 57.2%; in the data set on Cardiac muscle cell [4], 46.9%.

Consider `CC1(C)CCC[C@](C)([C@H]2CC[C@]3(C)[C@@H]2[C@H](O)C[C@@H]2[C@@]4(C)Cc5c([nH]c6ccc(OC(F)(F)F)cc56)C(C)(C)[C@@H]4C(=O)C[C@]23C)O1`, for which the Activity is 70.8% in the data set on Cardiac muscle cell [1], “Non-Toxic” in the data set with Cardiac muscle cell [2], 78.4% with Cardiac muscle cell [3] and 64.4% in the data set with Cardiac muscle cell [4].

For `CC1(C)CCC[C@](C)([C@H]2CC[C@]3(C)[C@@H]2[C@H](O)C[C@@H]2[C@@]4(C)Cc5c(CO)nn(-c6ccccc6)c5C(C)(C)[C@@H]4[C@H](O)C[C@]23C)O1`, the Activity in the data set with Cardiac muscle cell [1] is given as 56.6%; in the data set with Cardiac muscle cell [2], “Non-Toxic”; in the data set with Cardiac muscle cell [3], 61.2%; in the data set with Cardiac muscle cell [4] it was 51.6%.

For the compound `CC1(C)CCC[C@](C)([C@H]2CC[C@]3(C)[C@@H]2[C@H](O)C[C@@H]2[C@@]4(C)Cc5sc(N)nc5C(C)(C)[C@@H]4C(=O)C[C@]23C)O1`, the Activity was 70.2% with Cardiac muscle cell [1], “Non-Toxic” in the data set on Cardiac muscle cell [2], 77.7% with Cardiac muscle cell [3] and 60.2% with Cardiac muscle cell [4].

Regarding `CC1(C)CCC[C@](C)([C@H]2CC[C@]3(C)[C@@H]2[C@H](O)C[C@@H]2[C@@]4(C)Cc5nccnc5C(C)(C)[C@@H]4[C@@H](O)C[C@]23C)O1`, the Activity was 62.3% in the data set with Cardiac muscle cell [1], “Non-Toxic” with Cardiac muscle cell [2], 70.3% in the data set with Cardiac muscle cell [3] and 54.9% in the data set with Cardiac muscle cell [4].

For the compound `CC1(C)CCC[C@](C)([C@H]2CC[C@]3(C)[C@@H]2[C@H](O)C[C@@H]2[C@@]4(C)Cc5c(C(=O)O)noc5C(C)(C)[C@@H]4[C@H](O)C[C@]23C)O1`, the outcome with Rattus norvegicus [6] and with Rattus norvegicus [8] was inactive. In addition, the Activity was 79.2% with Cardiac muscle cell [1]; “Non-Toxic” in the data set with Cardiac muscle cell [2]; “Dose-dependent effect” in the data set with Rattus norvegicus [7]; 89.2% in the data set on Cardiac muscle cell [3]; 68.2% in the data set with Cardiac muscle cell [4]; 20.5% in the data set on Rattus norvegicus [5]. In addition, the inhibition result in the data set on Rattus norvegicus [9] was “Dose-dependent effect”.

Regarding `C[C@H](CS)C(=O)N1CCC[C@H]1C(=O)O` [CAPTOPRIL], the Activity in the data set with Rattus norvegicus [10] is given as 34%.

As to `CC1(C)CCC[C@](C)([C@H]2CC[C@]3(C)[C@@H]2[C@H](O)C[C@@H]2[C@@]4(C)Cc5sc(-c6ccc(Cl)cc6)nc5C(C)(C)[C@@H]4C(=O)C[C@]23C)O1`, the Activity in the data set on Cardiac muscle cell [1] was 54.8%; with Cardiac muscle cell [2], “Non-Toxic”; in the data set with Cardiac muscle cell [3] it was 60.3%; in the data set on Cardiac muscle cell [4], 49.5%.

Take `CCOC(=O)c1noc2c1C[C@]1(C)[C@H]3C[C@@H](O)[C@@H]4[C@@H]([C@@]5(C)CCCC(C)(C)O5)CC[C@@]4(C)[C@]3(C)C[C@@H](O)[C@H]1C2(C)C`: the Activity with Cardiac muscle cell [1] is reported as 67.9%; in the data set on Cardiac muscle cell [2], “Non-Toxic”; in the data set with Cardiac muscle cell [3], 74.7%; in the data set on Cardiac muscle cell [4] it was 57.5%.

For `CC1(C)CCC[C@](C)([C@H]2CC[C@]3(C)[C@@H]2[C@H](O)C[C@@H]2[C@@]4(C)Cc5c(n[nH]c5CO)C(C)(C)[C@@H]4[C@H](O)C[C@]23C)O1`, the Activity is reported as 64.6% in the data set with Cardiac muscle cell [1], “Non-Toxic” in the data set with Cardiac muscle cell [2], 75.7% in the data set on Cardiac muscle cell [3] and 55% in the data set with Cardiac muscle cell [4].

`CC1(C)CCC[C@](C)([C@H]2CC[C@]3(C)[C@@H]2[C@H](O)C[C@@H]2[C@@]4(C)Cc5c[nH]nc5C(C)(C)[C@@H]4[C@H](O)C[C@]23C)O1`: the Activity with Cardiac muscle cell [1] is given as 55.9%; with Cardiac muscle cell [2] it was “Non-Toxic”; in the data set with Cardiac muscle cell [3], 61.7%; with Cardiac muscle cell [4] it was 48.6%.
